Test results published in patent US9028858B2 (Coloplast A/S, priority 2003, dated 2015).
Read-outs that look alike come from different tables or passages of the source.

Legend:
[1] = tested on: 7 different bacterial strains; conditions: mid-log phase, absorbance at 600 nm, 7 strains pooled
From the text: The obtained data from each specific bacterial strain were pooled.

[2] = hydrogen peroxide taken alone
[3] = for %-point H2O2 after storage / Appearance of catheter (0–5; 0 = perfect, 5 = unacceptable) / Appearance of swelling medium (0–5) / Loss of H2O2 (%/day) / pH after storage: 1 week
[4] = initial 0.2%-point H2O2, 60° C., no PEG 2000
[5] = initial 0.2%-point H2O2, 80° C., no PEG 2000
[6] = initial 0.4%-point H2O2, 60° C., no PEG 2000
[7] = initial 0.4%-point H2O2, 80° C., no PEG 2000
[8] = initial 0.8%-point H2O2, 60° C., no PEG 2000
[9] = initial 0.8%-point H2O2, 80° C., no PEG 2000
[10] = initial 1.6%-point H2O2, 60° C., 6% PEG 2000
[11] = initial 1.6%-point H2O2, 60° C., no PEG 2000
[12] = initial 1.6%-point H2O2, 80° C., 6% PEG 2000

OO [Std H2O2, hydrogen peroxide]
bacterial growth, Mean (% of control) ([1]; 0.00000256% hydrogen peroxide): 110.0 % of control
bacterial growth, Mean (% of control) ([1]; 0.0000128% hydrogen peroxide): 99.8 % of control
bacterial growth, Mean (% of control) ([1]; 0.000064% hydrogen peroxide): 97.9 % of control
bacterial growth, Mean (% of control) ([1]; 0.000320% hydrogen peroxide): 96.2 % of control
bacterial growth, Mean (% of control) ([1]; 0.0016% hydrogen peroxide): 87.3 % of control
bacterial growth, Mean (% of control) ([1]; 0.008% hydrogen peroxide): 63.0 % of control
bacterial growth, Mean (% of control) ([1]; 0.04% hydrogen peroxide): 35.6 % of control
bacterial growth, Mean (% of control) ([1]; 0.2% hydrogen peroxide): 16.0 % of control
bacterial growth, Mean (% of control) ([1]; 1.0% hydrogen peroxide): 11.7 % of control
speed of effect compared to a range of other anti-microbial agents [2]: rapid
H2O2 disappeared during storage ([3]; 1 week at 80° C., samples not containing PEG 2000, regardless of initial H2O2 concentration): 25-30%
%-point H2O2 after storage [3, 4]: 0.20 %-point
Appearance of catheter (0–5; 0 = perfect, 5 = unacceptable) [3, 4]: 0
Appearance of swelling medium (0–5) [3, 4]: 0
Loss of H2O2 (%/day) [3, 4]: 0.3 %/day
pH after storage [3, 4]: 5.64
%-point H2O2 after storage [3, 5]: 0.15 %-point
Appearance of catheter (0–5; 0 = perfect, 5 = unacceptable) [3, 5]: 0
Appearance of swelling medium (0–5) [3, 5]: 0
Loss of H2O2 (%/day) [3, 5]: 3.5 %/day
pH after storage [3, 5]: 5.63
%-point H2O2 after storage [3, 6]: 0.37 %-point
Appearance of catheter (0–5; 0 = perfect, 5 = unacceptable) [3, 6]: 0
Appearance of swelling medium (0–5) [3, 6]: 0
Loss of H2O2 (%/day) [3, 6]: 1.0 %/day
pH after storage [3, 6]: 5.63
%-point H2O2 after storage [3, 7]: 0.29 %-point
Appearance of catheter (0–5; 0 = perfect, 5 = unacceptable) [3, 7]: 0
Appearance of swelling medium (0–5) [3, 7]: 0
Loss of H2O2 (%/day) [3, 7]: 3.8 %/day
pH after storage [3, 7]: 5.79
%-point H2O2 after storage [3, 8]: 0.75 %-point
Appearance of catheter (0–5; 0 = perfect, 5 = unacceptable) [3, 8]: 0
Appearance of swelling medium (0–5) [3, 8]: 0
Loss of H2O2 (%/day) [3, 8]: 0.9 %/day
pH after storage [3, 8]: 5.63
%-point H2O2 after storage [3, 9]: 0.58 %-point
Appearance of catheter (0–5; 0 = perfect, 5 = unacceptable) [3, 9]: 0
Appearance of swelling medium (0–5) [3, 9]: 0
Loss of H2O2 (%/day) [3, 9]: 4.0 %/day
pH after storage [3, 9]: 5.86
%-point H2O2 after storage [3, 10]: 1.25 %-point
Appearance of catheter (0–5; 0 = perfect, 5 = unacceptable) [3, 10]: 1
Appearance of swelling medium (0–5) [3, 10]: 0
Loss of H2O2 (%/day) [3, 10]: 3.2 %/day
pH after storage [3, 10]: 5.13
%-point H2O2 after storage [3, 11]: 1.41 %-point
Appearance of catheter (0–5; 0 = perfect, 5 = unacceptable) [3, 11]: 0
Appearance of swelling medium (0–5) [3, 11]: 0
Loss of H2O2 (%/day) [3, 11]: 1.7 %/day
pH after storage [3, 11]: 5.71
%-point H2O2 after storage [3, 12]: 0.02 %-point
Appearance of catheter (0–5; 0 = perfect, 5 = unacceptable) [3, 12]: 3
Appearance of swelling medium (0–5) [3, 12]: 0
Loss of H2O2 (%/day) [3, 12]: 14.1 %/day
pH after storage [3, 12]: 3.46
